{"source": "patent US20260137682A1", "about": "“METHOD FOR TREATING PNEUMOCONIOSIS” (Beijing Tide Pharmaceuticals Co., Ltd., priority 2022, published 2026)", "format_in_all_cases": "in vivo", "key": {"silicosis model mice [1]": {"tested_on": "silicosis model mice", "experiment": "Pulmonary function indices in SiO2-induced silicosis model mice", "details": "oral, 28 days, 2 h after final administration, vs model group", "experimental": "(§1) After acclimatization, 6-8-week-old male C57BL/6J mice were intratracheally instilled 40 μL of SiO2 suspension (600 mg/kg) on Day 1 (D1) to establish the silicosis model. On the same day (D1), the animals were randomly divided into 3 groups based on body weight and administered either the vehicle (model group) or Compound 007 (100 mg/kg or 150 mg/kg, once daily) via oral gavage for 28 consecutive days. A normal control group was also established, intratracheally instilled 40 μL of saline on D1 and orally administered sterile water.\nTwo hours after the final administration, mouse pulmonary function indices were measured."}, "TGF-β": {"tested_on": "TGF-β", "experiment": "TGF-β detection in BALF of silicosis model mice", "details": "oral, 28 days, vs model group", "experimental": "as §1\nAfter the administration was completed, the animals were euthanized, and bronchoalveolar lavage fluid (BALF) was collected from randomly selected animals in each group for TGF-β detection."}, "silicosis model mice [2]": {"tested_on": "silicosis model mice", "experiment": "Silicotic nodule scoring (Masson's Trichrome staining, King's five-point scale) in lung of silicosis model mice", "details": "28 days; for silica-induced nodule formation and collagen fiber deposition: oral, Masson's Trichrome staining; for Silicotic Nodule Score (Mean ± SEM): oral gavage, score 0 to 5, model group 1.08 ± 0.27", "experimental": "as §1\nLung tissues from all mice were collected, sectioned, and subjected to Masson's Trichrome staining and H&E staining for silicotic nodule scoring and inflammation scoring. Silicotic nodule scoring was performed using the King's five-point scale [Zhujie Cao, et al., Acta Pharmacologica Sinica, 2021], where the severity of silicotic nodules in lung tissue was scored from 0 to 5, with higher scores indicating more severe nodulation. H&E pathological scoring followed Szapiel's inflammation scoring criteria, where the degree of inflammatory cell infiltration in lung tissue was scored from 0 to 3, with higher scores indicating greater inflammation in the lung tissue (0: no inflammation or alveolitis: 1: mild, mononuclear cell infiltration with thickened alveolar septa, localized involvement, pleural lesions involving less than 20% of the lung, and well-preserved alveolar structure; 2: moderate, more extensive alveolitis involving 20%-50% of the lung, primarily pleural lesions; 3: severe, diffuse alveolitis involving over 50% of the lung, occasionally with mononuclear cell infiltration in the alveoli and interstitium and/or some hemorrhagic areas within the alveoli)."}, "silicosis model mice [3]": {"tested_on": "silicosis model mice", "experiment": "Inflammation scoring (H&E staining, Szapiel's criteria) in lung tissue of silicosis model mice", "details": "oral gavage, 28 days, score 0 to 3, model group 2.22 ± 0.28", "experimental": "as §1\nLung tissues from all mice were collected, sectioned, and subjected to Masson's Trichrome staining and H&E staining for silicotic nodule scoring and inflammation scoring. Silicotic nodule scoring was performed using the King's five-point scale [Zhujie Cao, et al., Acta Pharmacologica Sinica, 2021], where the severity of silicotic nodules in lung tissue was scored from 0 to 5, with higher scores indicating more severe nodulation. […]"}, "silicosis model mice [4]": {"tested_on": "silicosis model mice", "experiment": "Mortality during 28-day dosing in silicosis model mice", "details": "100 mg/kg or 150 mg/kg once daily, oral gavage, 28 consecutive days", "experimental": "as §1"}}}
{"compound": "Cn1c(C(=O)N2CC(F)(F)C2)cc2ccc(-c3nccc(Nc4ccc(-c5cn[nH]c5)cc4)n3)cc21", "note": "[Compound 007]", "values": [{"measurement": "inspiratory capacity", "setting": "silicosis model mice [1]; 100 mg/kg daily, p<0.05", "value": "significantly increased"}, {"measurement": "respiratory system elastance", "setting": "silicosis model mice [1]; 100 mg/kg daily, p<0.05", "value": "decreased"}, {"measurement": "respiratory system resistance", "setting": "silicosis model mice [1]; 100 mg/kg daily, p<0.05", "value": "reduced"}, {"measurement": "inspiratory capacity", "setting": "silicosis model mice [1]; 150 mg/kg daily, p<0.01", "value": "significantly increased"}, {"measurement": "respiratory system elastance", "setting": "silicosis model mice [1]; 150 mg/kg daily, p<0.05", "value": "decreased"}, {"measurement": "respiratory system resistance", "setting": "silicosis model mice [1]; 150 mg/kg daily, p<0.05", "value": "reduced"}, {"measurement": "TGF-β levels in BALF", "setting": "TGF-β; 100 mg/kg daily, p<0.001", "value": "significantly reduced"}, {"measurement": "TGF-β levels in BALF", "setting": "TGF-β; 150 mg/kg daily, p<0.0001", "value": "significantly reduced"}, {"measurement": "silica-induced nodule formation and collagen fiber deposition", "setting": "silicosis model mice [2]; 100 mg/kg daily", "value": "reduced"}, {"measurement": "Silicotic Nodule Score (Mean ± SEM)", "setting": "silicosis model mice [2]; 100 mg/kg once daily", "value": "0.32 ± 0.06"}, {"measurement": "silica-induced nodule formation and collagen fiber deposition", "setting": "silicosis model mice [2]; 150 mg/kg daily", "value": "reduced"}, {"measurement": "Silicotic Nodule Score (Mean ± SEM)", "setting": "silicosis model mice [2]; 150 mg/kg once daily", "value": "0.35 ± 0.09"}, {"measurement": "Inflammation Score (Mean ± SEM)", "setting": "silicosis model mice [3]; 100 mg/kg once daily", "value": "1.22 ± 0.15"}, {"measurement": "Inflammation Score (Mean ± SEM)", "setting": "silicosis model mice [3]; 150 mg/kg once daily", "value": "1.22 ± 0.22"}, {"measurement": "mortality during the dosing period", "setting": "silicosis model mice [4]", "value": "No mortality was observed"}]}
